ChEMBL document CHEMBL5465560, “Selectivity Literature for EUbOPEN Chemogenomic Library” (2024)
One block for each molecule: values may come before it.

Experiments:
[1] = target: Mitogen-activated protein kinase kinase kinase 11 (Homo sapiens) (UniProt Q16584); settings: at 10 µM
[2] = Selectivity interaction (ActivX KiNativ screen (kinase selectivity in THP-1 cell lysates)) EUB0000639a STLK6; settings: Selectivity number of off-targets 0; Selectivity number of targets 283; Source Knowledge https://pubmed.ncbi.nlm.nih.gov/28498658/; at 0.2 µM
[3] = target: Serine/threonine-protein kinase PRP4 homolog (Homo sapiens) (UniProt Q13523); assay: Selectivity interaction (ActivX KiNativ screen (kinase selectivity in THP-1 cell lysates)) EUB0000639a PRPF4; format: subcellular; settings: lysate
Chain of Serine/threonine-protein kinase PRP4 homolog (Homo sapiens) (Q13523 whole entry): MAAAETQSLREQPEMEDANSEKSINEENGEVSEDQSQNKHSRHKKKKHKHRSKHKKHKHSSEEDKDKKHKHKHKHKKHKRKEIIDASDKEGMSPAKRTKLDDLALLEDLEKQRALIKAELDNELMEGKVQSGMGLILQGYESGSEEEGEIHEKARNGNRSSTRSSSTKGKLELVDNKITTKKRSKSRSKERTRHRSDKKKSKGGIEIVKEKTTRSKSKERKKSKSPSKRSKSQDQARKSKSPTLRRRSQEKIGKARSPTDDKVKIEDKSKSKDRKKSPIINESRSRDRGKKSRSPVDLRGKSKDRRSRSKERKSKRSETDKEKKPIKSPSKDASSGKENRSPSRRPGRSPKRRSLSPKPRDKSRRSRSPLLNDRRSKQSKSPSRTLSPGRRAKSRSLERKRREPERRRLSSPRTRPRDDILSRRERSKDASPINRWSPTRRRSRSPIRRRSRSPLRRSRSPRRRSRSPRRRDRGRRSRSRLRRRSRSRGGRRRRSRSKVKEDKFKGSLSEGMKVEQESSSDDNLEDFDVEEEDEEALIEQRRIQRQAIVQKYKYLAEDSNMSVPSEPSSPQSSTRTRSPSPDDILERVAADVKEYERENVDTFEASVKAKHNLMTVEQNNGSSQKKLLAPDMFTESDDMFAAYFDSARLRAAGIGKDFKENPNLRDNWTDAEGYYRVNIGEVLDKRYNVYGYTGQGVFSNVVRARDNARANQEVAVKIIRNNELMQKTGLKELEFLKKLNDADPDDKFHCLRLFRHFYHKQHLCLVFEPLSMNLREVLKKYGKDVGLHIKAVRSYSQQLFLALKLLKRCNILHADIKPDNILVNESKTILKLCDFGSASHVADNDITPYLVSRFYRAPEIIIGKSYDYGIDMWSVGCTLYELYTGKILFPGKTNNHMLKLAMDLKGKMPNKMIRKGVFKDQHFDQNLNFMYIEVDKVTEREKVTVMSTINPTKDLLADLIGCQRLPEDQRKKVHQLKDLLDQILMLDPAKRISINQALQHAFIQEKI

[4] = target: Mitogen-activated protein kinase kinase kinase kinase 5 (Homo sapiens) (UniProt Q9Y4K4); settings: at 10 µM
Chain of Mitogen-activated protein kinase kinase kinase kinase 5 (Homo sapiens) (Q9Y4K4 whole entry, looked up): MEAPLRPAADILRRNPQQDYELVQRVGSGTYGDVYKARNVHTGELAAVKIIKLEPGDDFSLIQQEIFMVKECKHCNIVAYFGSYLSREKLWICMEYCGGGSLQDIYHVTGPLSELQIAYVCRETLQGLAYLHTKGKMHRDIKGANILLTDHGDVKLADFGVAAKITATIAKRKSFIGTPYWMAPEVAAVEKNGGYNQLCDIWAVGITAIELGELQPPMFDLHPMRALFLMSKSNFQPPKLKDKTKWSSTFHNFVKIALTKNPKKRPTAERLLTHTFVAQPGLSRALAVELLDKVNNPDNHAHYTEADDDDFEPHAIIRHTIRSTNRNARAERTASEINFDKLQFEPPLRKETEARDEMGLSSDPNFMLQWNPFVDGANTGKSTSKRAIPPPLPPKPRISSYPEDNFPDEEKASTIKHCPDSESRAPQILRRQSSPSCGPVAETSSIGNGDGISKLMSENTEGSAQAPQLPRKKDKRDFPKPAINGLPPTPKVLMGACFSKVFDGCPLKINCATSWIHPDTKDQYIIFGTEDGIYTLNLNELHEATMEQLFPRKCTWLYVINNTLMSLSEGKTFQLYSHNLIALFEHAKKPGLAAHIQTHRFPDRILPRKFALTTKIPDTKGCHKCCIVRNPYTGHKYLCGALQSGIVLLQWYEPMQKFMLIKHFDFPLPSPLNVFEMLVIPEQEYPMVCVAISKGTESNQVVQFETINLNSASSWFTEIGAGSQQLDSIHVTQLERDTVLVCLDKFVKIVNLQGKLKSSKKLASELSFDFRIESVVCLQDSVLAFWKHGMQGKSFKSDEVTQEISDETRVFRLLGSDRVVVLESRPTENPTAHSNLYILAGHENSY

[5] = target: T1, MAP kinase-activated protein kinase 5 (Homo sapiens) (UniProt Q8IW41); assay: Selectivity interaction (Kinase panel (Eurofins)) EUB0001564a MAPKAPK5; settings: at 1 µM
T1 sequence (whole entry): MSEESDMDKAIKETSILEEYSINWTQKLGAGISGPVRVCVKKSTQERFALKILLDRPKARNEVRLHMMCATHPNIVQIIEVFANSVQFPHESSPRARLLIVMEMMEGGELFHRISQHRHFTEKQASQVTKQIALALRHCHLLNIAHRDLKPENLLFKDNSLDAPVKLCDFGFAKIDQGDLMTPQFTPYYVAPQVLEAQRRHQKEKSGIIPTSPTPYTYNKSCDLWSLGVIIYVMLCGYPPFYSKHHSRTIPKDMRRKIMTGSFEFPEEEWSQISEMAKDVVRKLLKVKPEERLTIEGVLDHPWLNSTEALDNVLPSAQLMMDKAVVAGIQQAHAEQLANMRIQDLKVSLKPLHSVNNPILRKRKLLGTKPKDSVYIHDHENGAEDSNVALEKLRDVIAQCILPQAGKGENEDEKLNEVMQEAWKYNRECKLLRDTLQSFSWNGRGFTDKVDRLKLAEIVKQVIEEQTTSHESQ

[6] = target: 5'-AMP-activated protein kinase catalytic subunit alpha-1 (Homo sapiens, UniProt Q13131); assay: Selectivity interaction (KinomeScan (DiscoverX)) EUB0001619a PRKAA1; settings: at 1 µM
Chain of 5'-AMP-activated protein kinase catalytic subunit alpha-1 (Q13131 whole entry, looked up): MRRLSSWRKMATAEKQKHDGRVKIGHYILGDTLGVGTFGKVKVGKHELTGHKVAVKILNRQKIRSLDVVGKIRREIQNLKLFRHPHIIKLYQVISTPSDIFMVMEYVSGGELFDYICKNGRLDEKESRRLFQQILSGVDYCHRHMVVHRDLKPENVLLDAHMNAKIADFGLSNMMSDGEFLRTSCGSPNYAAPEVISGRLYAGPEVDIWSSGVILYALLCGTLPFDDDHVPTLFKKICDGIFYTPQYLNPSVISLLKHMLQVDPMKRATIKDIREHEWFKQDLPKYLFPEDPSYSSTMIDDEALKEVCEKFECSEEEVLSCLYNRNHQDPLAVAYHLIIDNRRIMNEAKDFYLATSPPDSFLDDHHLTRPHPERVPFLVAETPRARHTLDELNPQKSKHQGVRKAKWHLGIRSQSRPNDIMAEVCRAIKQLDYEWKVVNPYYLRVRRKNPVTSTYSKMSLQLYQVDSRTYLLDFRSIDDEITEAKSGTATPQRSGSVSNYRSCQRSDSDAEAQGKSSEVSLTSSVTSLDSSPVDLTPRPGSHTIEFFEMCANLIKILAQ

[7] = target: Calcium/calmodulin-dependent protein kinase kinase 1 (Homo sapiens) (UniProt Q8N5S9); assay: Selectivity interaction (KinomeScan (DiscoverX)) EUB0001619a CAMKK1; settings: at 1 µM
Chain of Calcium/calmodulin-dependent protein kinase kinase 1 (Homo sapiens) (Q8N5S9 whole entry, looked up): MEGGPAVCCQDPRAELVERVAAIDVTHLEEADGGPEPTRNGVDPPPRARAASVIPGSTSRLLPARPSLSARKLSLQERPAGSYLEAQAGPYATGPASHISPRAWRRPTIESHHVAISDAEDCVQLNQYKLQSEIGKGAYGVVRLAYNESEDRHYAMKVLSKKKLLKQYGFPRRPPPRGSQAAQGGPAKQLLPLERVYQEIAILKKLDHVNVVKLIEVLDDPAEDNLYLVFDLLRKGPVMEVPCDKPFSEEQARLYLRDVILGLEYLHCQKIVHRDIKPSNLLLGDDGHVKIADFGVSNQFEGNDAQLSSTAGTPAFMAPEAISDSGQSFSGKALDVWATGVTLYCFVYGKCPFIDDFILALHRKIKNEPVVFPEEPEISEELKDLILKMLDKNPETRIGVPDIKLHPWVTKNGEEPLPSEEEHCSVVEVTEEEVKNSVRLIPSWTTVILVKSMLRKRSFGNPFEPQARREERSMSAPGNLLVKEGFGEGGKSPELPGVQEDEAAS

[8] = target: T2, Scaffold protein ILK (Homo sapiens) (UniProt Q13418); assay: Selectivity interaction (Kinase panel (KiNativ target engagement assay in Jurkat cells)) EUB0001635a ILK; format: cell-based; settings: Selectivity number of off-targets 0.0, Selectivity number of targets 233.0, Source Knowledge https://www.sciencedirect.com/science/article/pii/S2451945619300674?via%3Dihub, at 1 µM
T2 sequence (whole entry): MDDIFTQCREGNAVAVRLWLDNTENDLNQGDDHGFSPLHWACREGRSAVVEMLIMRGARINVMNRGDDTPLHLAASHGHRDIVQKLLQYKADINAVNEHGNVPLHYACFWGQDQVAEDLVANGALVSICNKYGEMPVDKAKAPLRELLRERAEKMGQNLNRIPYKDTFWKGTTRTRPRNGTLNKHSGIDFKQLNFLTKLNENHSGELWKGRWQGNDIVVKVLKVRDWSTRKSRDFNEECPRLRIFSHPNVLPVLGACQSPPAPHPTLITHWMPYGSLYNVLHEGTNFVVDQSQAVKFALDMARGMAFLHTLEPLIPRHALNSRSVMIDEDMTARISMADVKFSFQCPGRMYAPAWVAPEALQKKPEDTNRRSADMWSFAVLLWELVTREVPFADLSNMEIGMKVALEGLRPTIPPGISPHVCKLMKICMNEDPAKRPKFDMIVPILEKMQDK

[9] = target: T3, Serine/threonine-protein kinase STK11 (Homo sapiens) (UniProt Q15831); assay: Selectivity interaction (KinomeScan (DiscoverX)) EUB0000666a STK11; settings: at 10 µM
T3 sequence (whole entry): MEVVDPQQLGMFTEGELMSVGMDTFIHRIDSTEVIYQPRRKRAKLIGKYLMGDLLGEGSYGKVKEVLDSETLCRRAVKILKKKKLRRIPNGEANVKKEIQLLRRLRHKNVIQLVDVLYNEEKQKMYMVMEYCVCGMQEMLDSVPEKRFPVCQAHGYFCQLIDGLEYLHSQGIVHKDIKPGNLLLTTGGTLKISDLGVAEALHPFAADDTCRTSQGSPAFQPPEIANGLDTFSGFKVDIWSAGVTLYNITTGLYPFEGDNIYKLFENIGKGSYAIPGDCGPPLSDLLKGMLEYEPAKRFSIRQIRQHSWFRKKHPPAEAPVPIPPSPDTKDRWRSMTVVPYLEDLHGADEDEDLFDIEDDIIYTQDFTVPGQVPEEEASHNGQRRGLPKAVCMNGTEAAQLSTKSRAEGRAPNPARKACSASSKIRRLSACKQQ

Chain of Mitogen-activated protein kinase kinase kinase 11 (Homo sapiens) (Q16584 whole entry, looked up): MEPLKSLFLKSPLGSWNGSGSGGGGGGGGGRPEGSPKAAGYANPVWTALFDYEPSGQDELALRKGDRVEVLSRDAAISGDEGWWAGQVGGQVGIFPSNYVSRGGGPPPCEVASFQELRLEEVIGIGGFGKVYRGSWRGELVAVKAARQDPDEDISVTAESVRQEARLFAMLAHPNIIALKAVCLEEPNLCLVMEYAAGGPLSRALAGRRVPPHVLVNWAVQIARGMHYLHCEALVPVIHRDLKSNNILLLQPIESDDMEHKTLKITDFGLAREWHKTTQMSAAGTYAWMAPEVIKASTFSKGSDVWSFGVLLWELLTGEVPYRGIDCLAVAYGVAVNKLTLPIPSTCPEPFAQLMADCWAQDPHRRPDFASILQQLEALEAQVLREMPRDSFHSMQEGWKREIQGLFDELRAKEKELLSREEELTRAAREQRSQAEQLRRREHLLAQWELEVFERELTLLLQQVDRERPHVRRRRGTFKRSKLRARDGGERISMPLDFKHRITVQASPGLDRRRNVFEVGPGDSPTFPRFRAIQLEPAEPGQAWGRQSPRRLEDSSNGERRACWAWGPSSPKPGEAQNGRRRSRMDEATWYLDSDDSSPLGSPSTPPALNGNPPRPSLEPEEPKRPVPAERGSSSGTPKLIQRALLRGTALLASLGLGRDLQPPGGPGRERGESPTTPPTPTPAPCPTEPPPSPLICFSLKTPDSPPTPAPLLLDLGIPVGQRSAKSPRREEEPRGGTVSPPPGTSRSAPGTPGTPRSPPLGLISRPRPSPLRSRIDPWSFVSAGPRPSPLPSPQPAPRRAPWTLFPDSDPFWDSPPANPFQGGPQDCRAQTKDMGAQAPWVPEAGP

Compound: Cc1cc([C@@H](C)Nc2ccccc2C(=O)O)c2nc(N3CCOCC3)cc(=O)n2c1 [AZD-6482]
% of control [1]: 100%

% of inhibition ([3]; at 0.01 µM): -2.3% | % of inhibition ([3]; at 0.04 µM): 7.1% | % of inhibition ([3]; at 0.2 µM): 29.8% | % of inhibition ([3]; at 1 µM): 73.9% | % of inhibition ([3]; at 5 µM): 86.3%
Compound: CC[C@@H]1[C@H](F)C(=O)N[C@@H]1COc1nccc2cc(C(N)=O)c(OC)cc12 [ZIMLOVISERTIB]
% of inhibition [2]: 7.4%

Compound: COCC(=O)NC/C=C/c1ccc2ncnc(Nc3ccc(Oc4ccc(C)nc4)c(C)c3)c2c1 [CP-724714]
% of control [4]: 86%

% of inhibition [5]: 23.6%
Compound: CC[C@@H](Nc1c(C#N)c(-c2ccc(-c3cccc(C)c3F)cc2)nc2cnccc12)C(=O)O [BAY-091]

Compound: N#Cc1cccc(-c2c[nH]c3ncnc(N4CCOCC4)c23)c1
% of control [6]: 71% | % of control [7]: 100%

Compound: C=CC(=O)Nc1ccc(C(=O)Nc2[nH]nc3c2CN(C(=O)N[C@H](CN(C)C)c2ccccc2)C3(C)C)cc1
% of engagement [8]: -20.3%

Compound: O=C(NOC[C@H](O)CO)c1ccc(F)c(F)c1Nc1ccc(I)cc1F
% of control [9]: 83%
